What was measured:
[1] = tested on: TcOYE; experiment: Electron spin resonance spectrum of the reaction product of TcOYE (radical generation); type: biochemical, Trypanosoma cruzi; details: JEOL X-band spectrometer
Description: Generation of radicals as a result of one-electron reduction is determined as follows. A hundred microliter of 5 mM tris-HCl buffer (pH 7.0) containing TcOYE and a substrate candidate is displaced with argon gas for 5 minutes to make an anaerobic environment. Then, 10 mM NADPH or NADH is added to the reaction mixture and allowed to react at 25° C. or 37° C. for 3 minutes under anaerobic condition. Part of the reaction mixture is analyzed with an electron spin resonance spectrometer (JEOL X-band spectrometer) to determine the generation of radicals. The measurement conditions and analytical method are described in the paper below. It is believed that the radicals produced react with oxygen to generate superoxide anion radicals (Moreno S. N. J. et al., J. Biol. Chem. 259: 6298-6305, 1984), which kill Trypanosoma cruzi.
The semiquinone radicals reacted with oxygen and produced superoxide anion radicals, which kill the protozoa (see FIG. 8).

[2] = tested on: recombinant TcOYE; type: biochemical, Trypanosoma cruzi; details: pH 7
[3] = tested on: TcOYE; experiment: Inhibition of the PGH2-F2α reductase activity of TcOYE; type: biochemical, Trypanosoma cruzi; details: FIG. 9
Description: An example of the reaction is as follows. For reaction under aerobic condition, 1 μl of 500 μM [1-14C]PGH2 solution (2.04 Gbq/mmol; acetone, DMSO or dimethylether diethylene glycol solution) is added to 100 μl of 100 mM phosphate buffer (pH 7.0) containing a NADPH production system (100 μM NADP, 100 μM glucose-6-phosphate, 1 unit of glucose-6-phosphate dehydrogenase), TcOYE and an inhibitor, and is allowed to react at 37° C. for two minutes. For reaction under anaerobic condition, after bubbling the reaction mixture with argon gas for five minutes, 100 μM NADPH or NADH and 1 μl PGH2 solution are added, and the mixture is allowed to react in argon gas at 37° C. for two minutes.
250 μl of a stop solution (diethyl ether:methanol:2M citric acid (30:4:1 mixed solution)) at −20° C. and an excess amount of anhydrous sodium sulfate are added to stop the reaction, and the remaining substrate ([1-14C]PGH2) and the enzymatic reaction product ([1-14C]PGF2α) are extracted in ether at the same time. Part (about 50 μl) of the ether layer is applied onto a silica gel thin layer (Merck & Co.) in a low-temperature room, and thin-layer chromatography (eluent:diethyl ether:methanol:acetic acid (90:2:1 mixed solution)) is performed in a refrigerated room at −20° C. After development, autoradiography of the thin layer plate is performed using the image analyzer FL2000 (Fuji Photo Film), and the substrate to product ratio is calculated to determine enzymatic activity.
The enzymatic reaction described above is conducted in the presence or absence of an inhibitor and a decrease in the reaction rate due to the inhibitor is examined to determine whether or not the reduction is inhibited. Because it is very likely that Trypanosoma cruzi uses prostaglandin to sustain parasitism in host cells, an inhibitor of TcOYE may be used to inhibit Trypanosoma cruzi parasitism in host cells.
Naphtoquinone compounds and nitro heterocyclic compounds that are reduced by TcOYE inhibit the PGH2-F2α reducing activity of TcOYE in a dose-dependent manner.

[4] = tested on: crude extract of Trypanosoma cruzi (PG synthesizing system); experiment: Prostaglandin production from arachidonic acid by crude extract of Trypanosoma cruzi; type: biochemical
Description: The vegetative form (epimastigote) of Trypanosoma cruzi YNIH strain in the insect body (obtained from the National Institute of Infectious Diseases (1-23-1, Toyama, Shinjuku-ku, Tokyo)) was incubated by the conventional method (Nozaki T. et al., J. Biol. Chem. 276: 6516-6523, 2001) using synthetic culture medium. The cultured protozoa was destroyed by hyposmotic treatment and allowed to react with arachidonic acid, and the PGs produced were extracted with an organic solvent and separated/purified by HPLC.

[5] = tested on: [H][C@]12C[C@]([H])(OO1)[C@H](C/C=C\CCCC(=O)O)[C@H]2/C=C/[C@@H](O)CCCCC; experiment: purified protein, by the assay type; details: other: cofactor NADPH (500 μM), argon-bubbled 0.1 M phosphate buffer pH 7.0, decrease in absorption at 340 nm
[6] = tested on: CC1=CC(=O)c2ccccc2C1=O; experiment: purified protein, by the assay type; details: other: cofactor NADPH (500 μM), argon-bubbled 0.1 M phosphate buffer pH 7.0, decrease in absorption at 340 nm
[7] = tested on: C[n+]1c2ccccc2nc2ccccc21; experiment: purified protein, by the assay type; details: other: cofactor NADPH (500 μM), argon-bubbled 0.1 M phosphate buffer pH 7.0, decrease in absorption at 340 nm
[8] = tested on: O=[N+]([O-])c1cc[n+]([O-])c2ccccc12; experiment: purified protein, by the assay type; details: other: cofactor NADPH (500 μM), argon-bubbled 0.1 M phosphate buffer pH 7.0, decrease in absorption at 340 nm
[9] = tested on: CC1CS(=O)(=O)CCN1/N=C/c1ccc([N+](=O)[O-])o1; experiment: purified protein, by the assay type; details: other: cofactor NADPH (500 μM), argon-bubbled 0.1 M phosphate buffer pH 7.0, decrease in absorption at 340 nm
[10] = tested on: CC1(C)CCC2=C(O1)c1ccccc1C(=O)C2=O; experiment: purified protein, by the assay type; details: other: cofactor NADH (500 μM), argon-bubbled 0.1 M phosphate buffer pH 7.0, decrease in absorption at 340 nm

Row | Compound | Type of reduction and radical production (ESR) [1] | Reduction of the compound by TcOYE (substrate specificity) [2] | further results
1 | 2β,6α-dimethyl-8α-(2-methyl-1-oxo-butoxy)-mevinic acid lactone [mevinolin] | underwent two-electron reduction and did not produce radicals | reduces | 
2 | O=[N+]([O-])c1cc[n+]([O-])c2ccccc12 [4-nitroquinoline-N-oxide] | underwent two-electron reduction and did not produce radicals | reduces | Inhibition of the PGH2-F2α reducing activity of TcOYE [3]: weak
3 | CCCCC/C=C\C=C\C(=O)CCCCCCCC(=O)O [9-oxo-10E,12Z-octadecadienoic acid] |  | reduces | 
4 | CC/C=C\C[C@@H]1C(=O)C=C[C@@H]1CCCCCCCC(=O)O [12-oxo-phytodienoic acid, 4-oxo-5β-(2Z-pentenyl)-2-cyclopentene-1β-octanoic acid] |  | reduces | 
5 | CC(=O)Oc1ccccc1C(=O)O [Aspirin] |  |  | Production of PGs (PGD2, PGE2, PGF2) by crude extract ([4]; 3 μM Aspirin): unaffected
6 | O=C(Cn1ccnc1[N+](=O)[O-])NCc1ccccc1 [benznidazole] |  | did not reduce | 
7 | Clc1ccc(COC(Cn2ccnc2)c2ccc(Cl)cc2Cl)cc1 (stereo not shown) [econazole] |  | reduces | 
8 | OO [hydrogen peroxide] |  | reduced | 
9 | COc1ccc2c(c1)c(CC(=O)O)c(C)n2C(=O)c1ccc(Cl)cc1 [indomethacin] |  |  | Production of PGs (PGD2, PGE2, PGF2) by crude extract ([4]; 42 μM indomethacin): unaffected
10 | CC1=CC(=O)c2ccccc2C1=O [menadion] | underwent one-electron reduction and produced semiquinone radicals | reduces | Inhibition of the PGH2-F2α reducing activity of TcOYE [3]: weak
11 | CC1CS(=O)(=O)CCN1/N=C/c1ccc([N+](=O)[O-])o1 (stereo not shown) [nifurtimox] | underwent two-electron reduction and did not produce radicals | reduces | Inhibition of the PGH2-F2α reducing activity of TcOYE [3]: inhibits the activity most strongly
12 | C[n+]1c2ccccc2nc2ccccc21 [phenazine methosulfate, 5-methyl-phenaziummethylsulfate] |  | reduces | 
13 | CC1(C)CCC2=C(O1)c1ccccc1C(=O)C2=O [β-lapachone] | underwent one-electron reduction and produced semiquinone radicals | reduces | Inhibition of the PGH2-F2α reducing activity of TcOYE [3]: weak
14 | recombinant TcOYE (Trypanosoma cruzi old yellow enzyme, PGH2-F2α reductase, flavoprotein, SEQ ID NO: 2, 379 amino acids; expressed in E. coli BL21 from pGEX-4T-1 as fusion with glutathione transferase, recovered by thrombin treatment) (Trypanosoma cruzi) |  |  | Km [5]: 5.0 µM; Km [6]: 0.82 µM; Km [7]: 10.4 µM; Km [8]: 9.5 µM; Km [9]: 19.0 µM; Km [10]: 0.17 µM
